One may read the ED50 as the dose that gives a 50% effect, or the effect in half of the subjects.

For data set [1], the system named is ADP-induced platelet aggregation. Briefly: inhibition of ADP-induced platelet aggregation in platelet rich plasma. Particulars: 5 min; human platelet rich plasma, 37° C, five minutes incubation prior to ADP; read-out: ED50 (amount which reduces platelet aggregation by 50%). Format: cell-based. The method, then: Another selection of representative compounds within the scope of the present invention, including some listed in the previous table, have been tested for their ability to inhibit platelet aggregation. Citrated whole blood from human volunteers, who had not taken any medicine for the previous week, was centrifuged to obtain platelet rich plasma. On addition of ADP (adenosine diphosphate) to this platelet rich plasma, incubated at 37° C with constant stirring, in an aggregometer, optical density changes can be observed which are caused by platelet aggregation. Thus, the extent of ADP-induced platelet aggregation is determined for each sample of blood used. Compounds to be tested were incubated for five minutes prior to the addition of ADP. The ED50 of a compound is that amount, in γ/ml, which reduces platelet aggregation by 50% under the above conditions.

The subject of a further data set is whole blood clot. Briefly: whole blood clot lysis method (fibrinolytic activity), blood from rats given compound intraperitoneally. In kind it is in vivo. The following applies: Rattus norvegicus, ip, 4 h, intraperitoneal, blood diluted 1:10, clotted with thrombin, 37° C, four hours, read-out: ED50 (dose which causes lysis of 50% of the clot). The procedure: Certain representative compounds within the scope of the present invention have been tested for fibrinolytic activity by the whole blood clot lysis method, as modified from the procedure of Billimoria et al.^1 In this method, blood from rats given a fibrinolytic compound intraperitoneally is taken and diluted 1:10. A standard amount is clotted with thrombin, incubated at 37° C for four hours, and the amount of clot that has lysed is determined. […] These ED50 values for the various compounds tested are set forth in the following table, each of the compounds being identified by name and by the number of the ensuing example in which its synthesis is described. […] ^1 Billimoria, […]., James, […]., Lancet II, 471 (1959)

Data set [2] deals with ADP-induced platelet aggregation and experimental thrombosis. The following applies: literature; cited from earlier work.
The next data set concerns fibrinolytic activity. Particulars: prior art; cited from earlier work.
The conditions of data set [3]: prior art; cited from earlier work.

Values after ≈ are worked out from the molar mass of the structure shown. Structures can show the parent of a compound that is named as a salt.

As to `COc1cc2c(cc1OC)C(CCCCC(CCC1=NCCc3cc(OC)c(OC)cc31)CCC1=NCCc3cc(OC)c(OC)cc31)=NCC2.Cl.Cl.Cl.O.O.O` [Example 1.1a, 1,1'-{3-[2-(3,4-dihydro-6,7-dimethoxy-1-isoquinolinyl)ethyl]heptamethylene}bis[3,4-dihydro-6,7-dimethoxyisoquinoline] trihydrochloride trihydrate], the IC50 in data set [1] was less than 40 µg/mL.

Take `COc1cc2c(cc1OC)C(CCCC(CCCC(CCCC1NCCc3cc(OC)c(OC)cc31)C1NCCc3cc(OC)c(OC)cc31)C1NCCc3cc(OC)c(OC)cc31)NCC2.Cl.Cl.Cl.Cl.O.O.O.O` (centres unmarked) [Example 2.1, 1,1',1",1'"-(1,4,8,11-Undecanetetrayl)tetrakis[1,2,3,4-tetrahydro-6,7-dimethoxyisoquinoline] tetrahydrochloride tetrahydrate]: the 50% effective dose (ED50) with whole blood clot was determined as 0.03 mg/kg.

For `COc1cc2c(cc1OC)C(CCC(CCC(CCC1NCCc3cc(OC)c(OC)cc31)CCC1NCCc3cc(OC)c(OC)cc31)CCC1NCCc3cc(OC)c(OC)cc31)NCC2.Cl.Cl.Cl.Cl.O.O.O.O` (centres unmarked) [Example 5.1, 1,1'-{3,6-bis[2-(1,2,3,4-tetrahydro-6,7-dimethoxy-1-isoquinolinyl)ethyl]-octamethylene}bis[1,2,3,4-tetrahydro-6,7-dimethoxyisoquinoline] tetrahydrochloride tetrahydrate], the ED50 in the data set with whole blood clot was found to be 0.06 mg/kg.

Take `COc1cc2c(cc1OC)C(CCCCC(SCC1NCCc3cc(OC)c(OC)cc31)C1NCCc3cc(OC)c(OC)cc31)NCC2` (centres unmarked) [Example 6.1, 1,1'-[1-[(1,2,3,4-tetrahydro-6,7-dimethoxy-1-isoquinolinylmethyl)thio]pentamethylene]bis[1,2,3,4-tetrahydro-6,7-dimethoxyisoquinoline]]: in the data set with whole blood clot, the median effective dose (ED50) is less than 0.6 mg/kg.

Consider `COc1cc2c(cc1OC)C(CCC(CCC(CC1NCCc3cc(OC)c(OC)cc31)c1ccccc1)CCC1NCCc3cc(OC)c(OC)cc31)NCC2` (centres unmarked) [Example 7.1, 1,1'-{2-phenyl-5-[2-(1,2,3,4-tetrahydro-6,7-dimethoxy-1-isoquinolinyl)ethyl]heptamethylene}bis[1,2,3,4-tetrahydro-6,7-dimethoxyisoquinoline]], for which, in the data set with whole blood clot, the 50% effective dose (ED50) was less than 0.1 mg/kg.

With `COc1cc2c(cc1OC)C(CCC(CCC1=NCCc3cc(OC)c(OC)cc31)CCC(CC1=NCCc3cc(OC)c(OC)cc31)c1ccccc1)=NCC2.Cl.Cl.Cl.O.O.O` (centres unmarked) [Example 7.1a, 1,1'-{5-[2-(3,4-dihydro-6,7-dimethoxy-1-isoquinolinyl)ethyl]-2-phenylheptamethylene}bis[3,4-dihydro-6,7-dimethoxyisoquinoline] trihydrochloride trihydrate], the IC50 in data set [1] was less than 40 µg/mL.

For the compound `COc1cc2c(cc1OC)C(CCC(CCC1NCCc3cc(OC)c(OC)cc31)CCC(C)(C)CC1NCCc3cc(OC)c(OC)cc31)NCC2` (centres unmarked) [Example 8.1, 1,1'-{2,2-dimethyl-5-[2-(1,2,3,4-tetrahydro-6,7-dimethoxy-1-isoquinolinyl)ethyl]heptamethylene}bis[1,2,3,4-tetrahydro-6,7-dimethoxyisoquinoline]], the ED50 in the data set on whole blood clot is less than 0.4 mg/kg.

Consider `COc1ccc2c(c1)CCNC2CCCCC(CCC1NCCc2cc(OC)ccc21)CCC1NCCc2cc(OC)ccc21` (centres unmarked) [Example 10.1, 1,1'-{3-[2-(1,2,3,4-tetrahydro-6-methoxy-1-isoquinolinyl)ethyl]heptamethylene}bis[1,2,3,4-tetrahydro-6-methoxyisoquinoline]], for which the 50% effective dose (ED50) in the data set on whole blood clot was determined as 0.5 mg/kg.

Consider `COc1cc2c(cc1OC)C(CCCCC(CCCCC(CCCCC1NCCc3cc(OC)c(OC)cc31)C1NCCc3cc(OC)c(OC)cc31)C1NCCc3cc(OC)c(OC)cc31)NCC2` (centres unmarked) [Example 15.1, 1,1',1",1'"-(1,5,10,14-tetradecanetetrayl)tetrakis[1,2,3,4-tetrahydro-6,7-dimethoxyisoquinoline]], for which the ED50 with whole blood clot stood at 0.04 mg/kg.

Regarding `COc1cc2c(cc1OC)C(CCCCC(CCCCC(CCCCC1=NCCc3cc(OC)c(OC)cc31)C1=NCCc3cc(OC)c(OC)cc31)C1=NCCc3cc(OC)c(OC)cc31)=NCC2.Cl.Cl.Cl.Cl.O.O.O.O` (centres unmarked) [Example 15.1a, 1,1',1",1'"-(1,5,10,14-tetradecanetetrayl)tetrakis[3,4-dihydro-6,7-dimethoxyisoquinoline] tetrahydrochloride tetrahydrate], the IC50 in data set [1] was 27 µg/mL.

Consider `COc1cc2c(cc1OC)C(CCCC(CCCCC(CCCC1NCCc3cc(OC)c(OC)cc31)C1NCCc3cc(OC)c(OC)cc31)C1NCCc3cc(OC)c(OC)cc31)NCC2` (centres unmarked) [Example 16.1, 1,1',1",1'"-(1,4,9,12-dodecanetetrayl)tetrakis[1,2,3,4-tetrahydro-6,7-dimethoxyisoquinoline]], for which the ED50 in the data set with whole blood clot came out at 0.03 mg/kg.

Take `COc1cc2c(cc1OC)C(CCOCC(COCCC1NCCc3cc(OC)c(OC)cc31)OCCC1NCCc3cc(OC)c(OC)cc31)NCC2.Cl.Cl.Cl` (centres unmarked) [Example 17.1, 1,1',1"-[1,2,3-PROPANETRIYLTRI-(OXYETHYLENE)]TRIS[1,2,3,4-TETRAHYDRO-6,7-DIMETHOXYISOQUINOLINE] TRIHYDROCHLORIDE]: the ED50 in the data set with whole blood clot is 0.8 mg/kg.

On to `COc1cc2c(cc1OC)C(CCOCC(COCCC1=NCCc3cc(OC)c(OC)cc31)OCCC1=NCCc3cc(OC)c(OC)cc31)=NCC2` [Example 17.1a, 1,1',1"-[1,2,3-propanetriyltri(oxyethylene)]tris[3,4-dihydro-6,7-dimethoxyisoquinoline]], for which the IC50 in data set [1] was less than 40 µg/mL.

For the compound `COc1cc2c(cc1OC)C(CCN(CCC1NCCc3cc(OC)c(OC)cc31)CCC1NCCc3cc(OC)c(OC)cc31)NCC2` (centres unmarked) [Example 17.3, 1,1',1"-(nitrilotriethylene)tris[1,2,3,4-tetrahydro-6,7-dimethoxyisoquinoline]], in the data set with whole blood clot, the ED50 amounted to 0.7 mg/kg.

With `COc1cc2c(cc1OC)C(CCC(CCC1NCCc3cc(OC)c(OC)cc31)(CCC1NCCc3cc(OC)c(OC)cc31)[N+](=O)[O-])NCC2` (centres unmarked) [Example 18.1, 1,1'-{3-nitro-3-[2-(1,2,3,4-tetrahydro-6,7-dimethoxy-1-isoquinolinyl)ethyl]pentamethylene}bis[1,2,3,4-tetrahydro-6,7-dimethoxyisoquinoline]], the IC50 in data set [1] turned out to be 9 µg/mL (≈ 12.5 µM). The ED50 in the data set on whole blood clot was less than 0.6 mg/kg.

Regarding `COc1cc2c(cc1OC)C(CCC(CCC1=NCCc3cc(OC)c(OC)cc31)(CCC1=NCCc3cc(OC)c(OC)cc31)[N+](=O)[O-])=NCC2.Cl.Cl.Cl` [Example 18.1a, 1,1'-{3-[2-(3,4-dihydro-6,7-dimethoxy-1-isoquinolinyl)ethyl] -3-nitropentamethylene}bis[3,4-dihydro-6,7-dimethoxyisoquinoline] trihydrochloride], the IC50 in data set [1] is 6 µg/mL.

For the compound `COc1cc2c(cc1OC)C(CCCC(CCCC1NCCc3cc(OC)c(OC)cc31)C1NCCc3cc(OC)c(OC)cc31)NCC2.Cl.Cl.Cl.O.O.O` (centres unmarked) [Example 19.1, 1,1',1"-(1,4,7-HEPTANETRIYL)TRIS[1,2,3,4-TETRAHYDRO-6,7-DIMETHOXYISOQUINOLINE] TRIHYDROCHLORIDE TRIHYDRATE], the median effective dose (ED50) in the data set on whole blood clot stood at 0.03 mg/kg.

For the compound `COc1cc2c(cc1OC)C(CCCC(CCCC1=NCCc3cc(OC)c(OC)cc31)C1=NCCc3cc(OC)c(OC)cc31)=NCC2` [Example 19.1a, 1,1',1"-(1,4,7-heptanetriyl)tris[3,4-dihydro-6,7-dimethoxyisoquinoline]], the IC50 in data set [1] was less than 40 µg/mL.

As to `COc1cc2c(cc1OC)[C@H](CCCC[C@H]1NCCc3cc(OC)c(OC)cc31)NCC2` [bisobrin dihydrochloride, 1,1'-tetramethylenebis[1,2,3,4-tetrahydro-6,7-dimethoxyisoquinoline], reference compound], the median effective dose (ED50) with whole blood clot was determined as 0.5 mg/kg.

For `OCCN(CCO)c1nc(N2CCCCC2)c2nc(N(CCO)CCO)nc(N3CCCCC3)c2n1` [dipyridamole, 2,2',2",2'"-[(4,8-dipiperidinopyrimido[5,4-d]pyrimidine-2,6-diyl)dinitrilo]tetraethanol, reference compound], in data set [1], the IC50 was found to be 270 µg/mL (≈ 535 µM). Besides, the “effect against ADP-induced platelet aggregation and experimental thrombosis” value in data set [2] is “generally recognized as being effective against ADP-induced platelet aggregation and experimental thrombosis”.

Take `CNC[C@H](O)c1ccc(O)c(O)c1` [epinephrine]: the “fibrinolytic activity in vivo” value in the data set on fibrinolytic activity was “Fibrinolytic activity in vivo can be induced”.

On to `NCCc1c[nH]cn1` [histamine], for which the “fibrinolytic activity in vivo” value in the data set with fibrinolytic activity is reported as “Fibrinolytic activity in vivo can be induced”.

On to `O=C(O)c1cccnc1` [nicotinic acid], for which the “fibrinolytic activity in vivo” value in the data set with fibrinolytic activity is recorded as “Fibrinolytic activity in vivo can be induced”.

In the case of `CCCCC1C(=O)N(c2ccccc2)N(c2ccccc2)C1=O` [phenylbutazone], the “fibrinolytic activity in vivo” value in the data set on fibrinolytic activity was “Fibrinolytic activity in vivo can be induced”.

Turning to `CCN(CC)CCOC(=O)c1ccc(N)cc1` [procaine], the “fibrinolytic activity in vivo” value in the data set on fibrinolytic activity was “Fibrinolytic activity in vivo can be induced”.

Consider `NCCc1c[nH]c2ccc(O)cc12` [serotonin], for which the “fibrinolytic activity in vivo” value in the data set with fibrinolytic activity is on record as “Fibrinolytic activity in vivo can be induced”.

Regarding “Streptokinase: a streptococcal protein, has been used for thrombolysis”, the “side effects in thrombolysis” value in data set [3] was “side effects of pyrogenicity and anaphylactic reactions”.

The values are drawn from patent US4107165A, “Tris[tetrahydroisoquinoline] compounds” (Endo Laboratories, priority 1976, dated 1978).
